# Reference: PMC10482975 (Nature Communications, 2023)
# Positions count from the first letter of the chain named. Like-named read-outs stand apart in the source and are kept apart here.
# How the values were obtained:
# [1] = target: T1, M1 mAChR WT (Homo sapiens, UniProt P11229); type: binding
# T1 construct: expressed in transfected cells
# T1 sequence (P11229 1-460): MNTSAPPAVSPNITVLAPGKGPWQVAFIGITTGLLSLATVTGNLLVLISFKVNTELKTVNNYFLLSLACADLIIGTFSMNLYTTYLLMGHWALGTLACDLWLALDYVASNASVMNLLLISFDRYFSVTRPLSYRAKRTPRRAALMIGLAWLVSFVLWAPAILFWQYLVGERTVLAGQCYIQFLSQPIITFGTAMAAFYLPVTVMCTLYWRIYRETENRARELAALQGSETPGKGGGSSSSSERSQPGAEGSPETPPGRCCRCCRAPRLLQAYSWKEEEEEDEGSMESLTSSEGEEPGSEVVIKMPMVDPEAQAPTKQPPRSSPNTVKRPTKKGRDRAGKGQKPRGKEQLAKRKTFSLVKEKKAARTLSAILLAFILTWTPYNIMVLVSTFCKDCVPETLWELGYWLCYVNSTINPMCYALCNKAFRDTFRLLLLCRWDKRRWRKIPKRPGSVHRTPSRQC
# Procedure: (§1) Flp-In Chinese hamster ovary (CHO) (Thermo Fisher Scientific) cells stably expressing mAChR WTs or mutant constructs were cultured in Dulbecco’s modified Eagle’s medium (DMEM, Invitrogen) containing 5% foetal bovine serum (FBS; ThermoTrace) and […] of hygromycin (Roche) in a humidified incubator (37 °C, 5% CO2). Upon reaching confluence, media was removed, cells were washed with phosphate buffered saline (PBS) and harvested from tissue culture flasks using versene (PBS with 0.2 g EDTA). Cells were then pelleted through centrifugation at 350 × g for three minutes followed by resuspension in DMEM + 5% FBS. Cells were then either plated for an assay or reseeded into a tissue culture flask.
# [2] = target: T2, M4 mAChR W435A (Homo sapiens, UniProt P08173, W435A); experiment: [3H]-NMS radioligand dissociation binding, M4 mAChR W435A; parameters: [3H]-NMS binding remaining vs Total Binding, MEAN: unit not given here; conditions: for [3H]-NMS binding remaining vs Total Binding, MEAN: M4 W435A mAChR
# T2 construct: expressed in transfected cells
# T2 sequence (P08173 1-479 W435A): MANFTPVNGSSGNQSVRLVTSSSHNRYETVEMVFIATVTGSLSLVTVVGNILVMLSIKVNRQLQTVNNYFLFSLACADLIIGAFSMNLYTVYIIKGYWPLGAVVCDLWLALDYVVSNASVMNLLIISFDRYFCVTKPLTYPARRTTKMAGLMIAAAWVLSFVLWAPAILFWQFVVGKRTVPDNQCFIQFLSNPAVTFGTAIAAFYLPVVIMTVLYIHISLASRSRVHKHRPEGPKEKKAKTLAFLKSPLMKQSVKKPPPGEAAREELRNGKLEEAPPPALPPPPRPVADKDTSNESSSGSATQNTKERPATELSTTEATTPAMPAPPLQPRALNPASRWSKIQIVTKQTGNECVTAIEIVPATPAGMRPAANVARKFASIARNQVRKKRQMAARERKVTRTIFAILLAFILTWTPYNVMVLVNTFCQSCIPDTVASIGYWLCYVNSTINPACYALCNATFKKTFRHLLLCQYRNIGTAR
# Procedure: as §1
# [3] = target: T3, M4 mAChR Y92A (Homo sapiens, UniProt P08173, Y92A); experiment: [3H]-NMS radioligand dissociation binding, M4 mAChR Y92A; parameters: [3H]-NMS binding remaining vs Total Binding, MEAN: unit not given here; conditions: for [3H]-NMS binding remaining vs Total Binding, MEAN: M4 Y92A mAChR
# T3 construct: expressed in transfected cells
# T3 sequence (P08173 1-479 Y92A): T2 sequence (P08173 1-479 W435A) with Y92A, A435W
# Procedure: as §1
# [4] = + 10uM LY2033 (Allosteric Ligand), Time 0 min (Total Binding)
# [5] = + 10uM LY2033 (Allosteric Ligand), Time 30 min
# [6] = + 10uM LY2033 (Allosteric Ligand), Time 60 min
# [7] = + 10uM LY2033 (Allosteric Ligand), Time 90 min
# [8] = + 10uM LY2033 (Allosteric Ligand), Time 120 min
# [9] = + 10uM LY2033 (Allosteric Ligand), Time 180 min
# [10] = + 10uM LY2033 (Allosteric Ligand), Time 300 min
structure (smiles),measurement,setting,value
COc1nc2sc(C(=O)NC3CC3)c(N)c2c(C)c1Cl [LY2033298],"[3H]-NMS binding remaining (0 min = 100), MEAN","[1]; 10uM Atr + 30uM LY2033, 10 min",100.177
same,"[3H]-NMS binding remaining (0 min = 100), MEAN","[1]; 10uM Atr + 30uM LY2033, 20 min",95.7624
same,"[3H]-NMS binding remaining (0 min = 100), MEAN","[1]; 10uM Atr + 30uM LY2033, 40 min",97.3513
same,"[3H]-NMS binding remaining (0 min = 100), MEAN","[1]; 10uM Atr + 30uM LY2033, 60 min",85.8605
same,"[3H]-NMS binding remaining (0 min = 100), MEAN","[1]; 10uM Atr + 30uM LY2033, 90 min",73.8671
same,"[3H]-NMS binding remaining (0 min = 100), MEAN","[1]; 10uM Atr + 30uM LY2033, 120 min",62.858
same,"[3H]-NMS binding remaining vs Total Binding, MEAN",[2]; [4],100
same,"[3H]-NMS binding remaining vs Total Binding, MEAN",[2]; [5],87.6204
same,"[3H]-NMS binding remaining vs Total Binding, MEAN",[2]; [6],83.5904
same,"[3H]-NMS binding remaining vs Total Binding, MEAN",[2]; [7],79.4133
same,"[3H]-NMS binding remaining vs Total Binding, MEAN",[2]; [8],78.9331
same,"[3H]-NMS binding remaining vs Total Binding, MEAN",[2]; [9],67.1451
same,"[3H]-NMS binding remaining vs Total Binding, MEAN",[2]; [10],50.6666
same,"[3H]-NMS binding remaining vs Total Binding, MEAN",[3]; [4],100
same,"[3H]-NMS binding remaining vs Total Binding, MEAN",[3]; [5],108.824
same,"[3H]-NMS binding remaining vs Total Binding, MEAN",[3]; [6],96.2598
same,"[3H]-NMS binding remaining vs Total Binding, MEAN",[3]; [7],94.6146
same,"[3H]-NMS binding remaining vs Total Binding, MEAN",[3]; [8],83.2371
same,"[3H]-NMS binding remaining vs Total Binding, MEAN",[3]; [9],74.311
same,"[3H]-NMS binding remaining vs Total Binding, MEAN",[3]; [10],49.3255
C[N+](C)(C)CC#CCOC1=NOCC1 [iperoxo],"[3H]-NMS binding remaining (0 min = 100), MEAN","[1]; 10uM Atr + 10 μM Iperoxo, 10 min",87.0617
same,"[3H]-NMS binding remaining (0 min = 100), MEAN","[1]; 10uM Atr + 10 μM Iperoxo, 20 min",66.0557
same,"[3H]-NMS binding remaining (0 min = 100), MEAN","[1]; 10uM Atr + 10 μM Iperoxo, 40 min",41.8921
same,"[3H]-NMS binding remaining (0 min = 100), MEAN","[1]; 10uM Atr + 10 μM Iperoxo, 60 min",27.7899
same,"[3H]-NMS binding remaining (0 min = 100), MEAN","[1]; 10uM Atr + 10 μM Iperoxo, 90 min",20.387
same,"[3H]-NMS binding remaining (0 min = 100), MEAN","[1]; 10uM Atr + 10 μM Iperoxo, 120 min",14.5109
CCCCCCOc1nsnc1C1=CCCN(C)C1 [xanomeline],"[3H]-NMS binding remaining vs Total Binding, MEAN","[2]; +100uM Xano, Time 30 min",96.9648
same,"[3H]-NMS binding remaining vs Total Binding, MEAN","[2]; +100uM Xano, Time 60 min",87.005
same,"[3H]-NMS binding remaining vs Total Binding, MEAN","[2]; +100uM Xano, Time 90 min",77.1921
same,"[3H]-NMS binding remaining vs Total Binding, MEAN","[2]; +100uM Xano, Time 120 min",74.9315
same,"[3H]-NMS binding remaining vs Total Binding, MEAN","[2]; +100uM Xano, Time 180 min",64.2361
same,"[3H]-NMS binding remaining vs Total Binding, MEAN","[2]; +100uM Xano, Time 300 min",31.9462
same,effect on [3H]-NMS dissociation (in words),[2]; M4 mAChR W435A mutant,loss in xanomeline modulation
same,"[3H]-NMS binding remaining vs Total Binding, MEAN","[3]; +100uM Xano, Time 30 min",84.6188
same,"[3H]-NMS binding remaining vs Total Binding, MEAN","[3]; +100uM Xano, Time 60 min",76.9087
same,"[3H]-NMS binding remaining vs Total Binding, MEAN","[3]; +100uM Xano, Time 90 min",63.0845
same,"[3H]-NMS binding remaining vs Total Binding, MEAN","[3]; +100uM Xano, Time 120 min",54.6505
same,"[3H]-NMS binding remaining vs Total Binding, MEAN","[3]; +100uM Xano, Time 300 min",15.7486
same,effect on [3H]-NMS dissociation (in words),[3]; M4 mAChR Y92A mutant,loss in xanomeline modulation
